Source: patent US11306063B2, “Heterocyclic naphthoquinones derivatives for use in the treatment of cancers including Cushing disease” (Commissariat a l'Energie Atomique et aux Energies …, priority 2016, dated 2022)
Read-outs that look alike come from different tables or passages of the source.

Tests used:
[1] = molecular target: T1, USP8^CD (purified catalytic domain of USP8) (Homo sapiens, UniProt P40818); assay: Inhibition of purified USP8^CD enzymatic activity (Ub-AMC or Ub-Rho substrate); format: biochemical; details: for inhibition at 0.01 µM: 0.01 μM compound; for inhibition at 0.05 µM: 0.05 μM compound; for inhibition at 0.1 µM: 0.1 μM compound; for inhibition at 0.5 µM: 0.5 μM compound; for inhibition at 1 µM: 1 μM compound; for inhibition at 5 µM: 5 μM compound; for inhibition at 10 µM: 10 μM compound; for inhibition at 25 µM: 25 μM compound; for inhibition at 50 µM: 50 μM compound; for inhibition of USP8^CD catalytic activity (IC50 range, FIG. 1): Ub-Rho substrate (0.1 μM)
T1 construct: the purified catalytic domain of USP8 (USP8^CD, in-house purified); made in house; host or cells: E. coli BL21 Gold
T1 sequence (P40818 777-1109 limits assumed): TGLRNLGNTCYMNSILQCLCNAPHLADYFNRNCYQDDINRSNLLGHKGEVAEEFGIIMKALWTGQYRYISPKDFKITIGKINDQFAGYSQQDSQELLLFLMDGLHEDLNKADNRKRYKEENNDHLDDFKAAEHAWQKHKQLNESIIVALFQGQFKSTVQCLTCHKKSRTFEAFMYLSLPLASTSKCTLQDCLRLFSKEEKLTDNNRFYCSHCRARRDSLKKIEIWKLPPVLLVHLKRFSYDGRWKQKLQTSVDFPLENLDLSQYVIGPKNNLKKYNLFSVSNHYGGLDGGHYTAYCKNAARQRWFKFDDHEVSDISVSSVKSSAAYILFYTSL
How it was run: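 His-tagged catalytic domain expressed in E. coli and purified by Ni affinity and gel filtration. Assayed in 50 mM HEPES pH 7.6 or 40 mM Tris pH 7.4 buffer with 1 mM DTT; compound added just before Ub-AMC or Ub-Rho substrate, fluorescence kinetics followed 20 or 30 min. Median of duplicates.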

[2] = test system: LNCaP prostatic cancer cells; assay: Cell growth inhibition and cell death induction (Incucyte), LNCaP; format: cell-based, human; details: 48 hours, FIG. 12E,F
From the text: (§1) FIG. 12: The cell growth inhibition and cell death induction of non-small cell lung cancers (NSCLC), HCC827 cells and derivative Gefitinib-resistant clone H1975 (FIG. 12 A,B) and of PC-3 (FIG. 12 C,D) and LnCAP (FIG. 12 E,F) were monitored using Incucyte microscope. Histogram represent in A,C,E: the final cell area relative to the total well area in (%) and in B,D,F: the fluorescent area in μm2. Error bars indicate standard deviation between 6 technical replicates.
(§2) The cell growth inhibition and cell death induction of non-small cell lung cancers (NSCLC), HCC827 cells and derivative Gefitinib-resistant clone H1975 were monitored during a period of 72 hours using Incucyte microscope and dedicated programs allowing to monitor cell confluency (i.e.: cell surface area relative to total well surface) and cell death induction by adding Propidium Iodide (PI) at 1 μg/ml (Sigma Aldrich #P4864) in the culture medium.

[3] = test system: LNCaP cells; assay: Cytotoxicity assay (PrestoBlue cell viability), LNCaP; format: cell-based; details: Homo sapiens, 48 hours treatment
Procedure: (§3) Messa, Messa DX5, HCT116, HEK-293, PC-3, LNCaP, HCC827 and H1975 cell lines are issued from the American Type Culture Collection (ATCC).
(§4) Messa, Messa DX5 and HCT116 were maintained in McCoy's supplemented with 10% fetal bovine serum, and 1% penicillin/streptomycin. PC-3, LNCaP cells were maintained in RPMI medium supplemented with 10% fetal bovine serum, and 1% penicilin/streptomycin and in the case of Messa DX5: 500 nM Doxorubicin was added to maintain selection pressure. HEK293 were maintained in DMEM medium supplemented with 10% fetal bovine serum, and 1% penicillin/streptomycin. Cells were maintained at 37° C. with 5% CO2, 95% air, and humid atmosphere. In the case of hormonal dependent LNCaP cells, 2 μM DiHydroTestosterone (DHT) was added or not—depending on the type of biological assay—for the same incubation period as compounds.
(§5) For cytotoxicity assays, cells were seeded in 96-well microplates 24 hours before the addition of increasing concentrations of each compound in the culture medium. Cell viability was analyzed 48 hours following addition of each compound through the monitoring of mitochondrial […] activity using PrestoBlue® Cell Viability Reagent (Invitrogen; #A-13261). Paclitaxel was used as a control which is cytotoxic on various cancerous cells although not on chemoresistant MESSA DX5 lineage.

[4] = test system: H1975 cells; assay: Cytotoxicity assay (PrestoBlue cell viability), H1975; format: cell-based, human
Procedure: as §3, §5

[5] = test system: MESSA cells; assay: Cytotoxicity assay (PrestoBlue cell viability), MESSA; format: cell-based; details: Homo sapiens, MES-SA; 48 hours treatment; concentration inducing 50% cell mortality
Procedure: as §3, §4, §5

[6] = test system: HEK293 cells; assay: Cytotoxicity assay (PrestoBlue cell viability), HEK293; format: cell-based; details: Homo sapiens, 48 hours treatment
Procedure: as §3, §4, §5

[7] = test system: PC-3 cells; assay: Cytotoxicity assay (PrestoBlue cell viability), PC-3; format: cell-based; details: Homo sapiens, 48 hours treatment
Procedure: as §3, §4, §5

[8] = test system: PC-3 prostatic cancer cells; assay: Cell growth inhibition and cell death induction (Incucyte), PC-3; format: cell-based, human; details: 48 hours, FIG. 12C,D
From the text: as §1, §2

[9] = Ub-AMC substrate at 1 μM, Table 2b, read-out: IC50 USP8 CD
[10] = Ub-Rhodamine substrate at 0.1 μM, Table 2c, read-out: IC50 USP8 CD

inhibition at 0.01 µM ([1]; Table 1d) [%]	inhibition at 0.05 µM ([1]; Table 1d) [%]	inhibition at 0.1 µM ([1]; Table 1d) [%]	inhibition at 0.5 µM ([1]; Table 1d) [%]	inhibition at 1 µM ([1]; Table 1b) [%]	inhibition at 1 µM ([1]; Table 1d) [%]	inhibition at 5 µM ([1]; Table 1b) [%]	inhibition at 5 µM ([1]; Table 1d) [%]	inhibition at 10 µM ([1]; Table 1d) [%]	inhibition at 25 µM ([1]; Table 1b) [%]	inhibition at 50 µM ([1]; Table 1b) [%]	IC50 [1, 9] [nM]	IC50 [1, 10] [nM]	Compound	cell growth inhibition and cell death induction, LNCaP [2]	EC50 [3] [nM]	EC50 ([4]; Homo sapiens, NCI-H1975, 48 h) [nM]	EC50 [5] [nM]	EC50 [6] [nM]	EC50 [7] [nM]	cell growth inhibition and cell death induction, PC-3 [8]	other results
-25	3	7	65	64	74	103	78	97	115	103	400	2300	O=C1c2ccccc2C(=O)c2nc(CS(=O)(=O)c3ccccc3F)c(CS(=O)(=O)c3ccccc3F)nc21 [OVM24]	inhibit cell growth and induce cell death in a dose dependent manner	1300	2000	700	2500	2500	inhibit cell growth and induce cell death in a dose dependent manner	–
–	–	–	–	–	–	–	–	–	–	–	–	–	CCCCS(=O)(=O)Cc1nc2c(nc1CS(=O)(=O)CCCC)C(=O)c1ccccc1C2=O [PCR6236]	inhibit cell growth and induce cell death in a dose dependent manner	2000	–	2000	1400	800	inhibit cell growth and induce cell death in a dose dependent manner	IC50 [1]: 60 nM; inhibition of USP8^CD catalytic activity (IC50 range, FIG. 1) [1]: in the nanomolar range; EC50 ([4]; 48 hours treatment, Gefitinib resistant cells): 3000 nM; EC50 ([4]; Homo sapiens, NCI-H1975, 48 h, 48 hours treatment, Gefitinib resistant cells): ≤ 3000 nM
–	–	–	–	–	–	–	–	–	–	–	–	–	CCCCS(=O)(=O)Cc1nc2c(o1)C(=O)c1ccccc1C2=O [PCR9301]	–	1300	–	1300	–	1000	–	inhibition at 0.1 µM ([1]; Table 3a): 53%; inhibition at 0.5 µM ([1]; Table 3a): 81%; inhibition at 1 µM ([1]; Table 3a): 107%; inhibition of USP8^CD catalytic activity (IC50 range, FIG. 1) [1]: in the nanomolar range; IC50 ([1]; Ub-Rho substrate, Table 3b, read-out: IC50 against purified USP8^CD): 80 nM
-17	16	0	67	93	93	98	103	99	100	107	300	40	CCCS(=O)(=O)Cc1nc2c(nc1CS(=O)(=O)CCC)C(=O)c1ccccc1C2=O [VIN6074]	inhibit cell growth and induce cell death in a dose dependent manner	1900	2000	2700	1500	2300	inhibit cell growth and induce cell death in a dose dependent manner	–
